Patent publication US8933230B2, “Phosphorus-containing group-substituted quinoline, its preparation process, medical composition containing the compounds and application” (priority 2011, dated 2015)

Legend:
Assay in all cases: KinomeScan kinase panel
Format in all cases: binding
PKNB (M. tuberculosis) = molecular target: T1, PKNB (M. tuberculosis) (Mycobacterium tuberculosis, UniProt P9WI81)
T1 construct: purchased DiscoveRx Corporation (KinomeScan)

MET(Y1235D) = molecular target: T2, MET(Y1235D) (Homo sapiens, UniProt P08581, Y1235D)
T2 construct: purchased DiscoveRx Corporation (KinomeScan)
Procedure, shortened: (§1)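 Tested at 1000 nM in the KinomeScan 442-kinase competition binding panel, with inhibition of each kinase or mutant reported at that single concentration.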

WEE2 = molecular target: T3, WEE2 (Homo sapiens, UniProt P0C1S8)
T3 construct: purchased DiscoveRx Corporation (KinomeScan service)
Procedure, shortened: as §1

IRAK4 = molecular target: T4, IRAK4 (Homo sapiens, UniProt Q9NWZ3)
T4 construct: purchased DiscoveRx Corporation (KinomeScan)
Procedure, shortened: as §1

EPHA1 = molecular target: T5, EPHA1 (Homo sapiens, UniProt P21709)
T5 construct: purchased DiscoveRx Corporation (KinomeScan)
Procedure, shortened: as §1

KIT(V559D) = molecular target: T6, KIT(V559D) (Homo sapiens, UniProt P10721, V559D)
T6 construct: purchased DiscoveRx Corporation (KinomeScan)
Procedure, shortened: as §1

EPHB4 = molecular target: T7, EPHB4 (Homo sapiens, UniProt P54760)
T7 construct: purchased DiscoveRx Corporation (KinomeScan)
Procedure, shortened: as §1

ICK = molecular target: T8, ICK (Homo sapiens, UniProt Q9UPZ9)
T8 construct: purchased DiscoveRx Corporation (KinomeScan)
Procedure, shortened: as §1

DDR2 = molecular target: T9, DDR2 (Homo sapiens, UniProt Q16832)
T9 construct: purchased DiscoveRx Corporation (KinomeScan)
Procedure, shortened: as §1

BTK = molecular target: T10, BTK (Homo sapiens, UniProt Q06187)
T10 construct: purchased DiscoveRx Corporation (KinomeScan)
Procedure, shortened: as §1

MEK1 = molecular target: T11, MEK1 (Homo sapiens, UniProt Q02750)
T11 construct: purchased DiscoveRx Corporation (KinomeScan)
Procedure, shortened: as §1

MST3 = molecular target: T12, MST3 (Homo sapiens, UniProt Q9Y6E0)
T12 construct: purchased DiscoveRx Corporation (KinomeScan)
Procedure, shortened: as §1

TBK1 = molecular target: T13, TBK1 (Homo sapiens, UniProt Q9UHD2)
T13 construct: purchased DiscoveRx Corporation (KinomeScan)
Procedure, shortened: as §1

PLK4 = molecular target: T14, PLK4 (Homo sapiens, UniProt O00444)
T14 construct: purchased DiscoveRx Corporation (KinomeScan)
Procedure, shortened: as §1

INSR = molecular target: T15, INSR (Homo sapiens, UniProt P06213)
T15 construct: purchased DiscoveRx Corporation (KinomeScan)
Procedure, shortened: as §1

EIF2AK1 = molecular target: T16, EIF2AK1 (Homo sapiens, UniProt Q9BQI3)
T16 construct: purchased DiscoveRx Corporation (KinomeScan)
Procedure, shortened: as §1

[1] = molecular target: T17, ABL1(F317I)-phosphorylated (Homo sapiens, UniProt P00519, F317I)
T17 construct: purchased DiscoveRx Corporation (KinomeScan)
Procedure, shortened: as §1

QSK = molecular target: T18, QSK (Homo sapiens, UniProt Q9Y2K2)
T18 construct: purchased DiscoveRx Corporation
Procedure, shortened: as §1

ERN1 = molecular target: T19, ERN1 (Homo sapiens, UniProt O75460)
T19 construct: purchased DiscoveRx Corporation (KinomeScan)
Procedure, shortened: as §1

PRKCQ = molecular target: T20, PRKCQ (Homo sapiens, UniProt Q04759)
T20 construct: purchased DiscoveRx Corporation (KinomeScan)
Procedure, shortened: as §1

CDK4-cyclinD3 = molecular target: T21, CDK4-cyclinD3 (Homo sapiens, UniProt P11802)
T21 construct: purchased DiscoveRx Corporation (KinomeScan)
Procedure, shortened: as §1

BMX = molecular target: T22, BMX (Homo sapiens, UniProt P51813)
T22 construct: purchased DiscoveRx Corporation (KinomeScan)
Procedure, shortened: as §1

LYN = molecular target: T23, LYN (Homo sapiens, UniProt P07948)
T23 construct: purchased DiscoveRx Corporation (KinomeScan)
Procedure, shortened: as §1

FRK = molecular target: T24, FRK (Homo sapiens, UniProt P42685)
T24 construct: purchased DiscoveRx Corporation (KinomeScan)
Procedure, shortened: as §1

MAP3K15 = molecular target: T25, MAP3K15 (Homo sapiens, UniProt Q6ZN16)
T25 construct: purchased DiscoveRx Corporation (KinomeScan)
Procedure, shortened: as §1

CDK9 = molecular target: T26, CDK9 (Homo sapiens, UniProt P50750)
T26 construct: purchased DiscoveRx Corporation (KinomeScan)
Procedure, shortened: as §1

KIT(D816V) = molecular target: T27, KIT(D816V) (Homo sapiens, UniProt P10721, D816V)
T27 construct: purchased DiscoveRx Corporation (KinomeScan)
Procedure, shortened: as §1

MARK3 = molecular target: T28, MARK3 (Homo sapiens, UniProt P27448)
T28 construct: purchased DiscoveRx Corporation (KinomeScan)
Procedure, shortened: as §1

PDPK1 = molecular target: T29, PDPK1 (Homo sapiens, UniProt O15530)
T29 construct: purchased DiscoveRx Corporation (KinomeScan panel)
Procedure, shortened: as §1

EPHB6 = molecular target: T30, EPHB6 (Homo sapiens, UniProt O15197)
T30 construct: purchased DiscoveRx Corporation (KinomeScan)
Procedure, shortened: as §1

DRAK2 = molecular target: T31, DRAK2 (Homo sapiens, UniProt O94768)
T31 construct: purchased DiscoveRx Corporation (KinomeScan)
Procedure, shortened: as §1

T10 sequence (Q06187 whole entry): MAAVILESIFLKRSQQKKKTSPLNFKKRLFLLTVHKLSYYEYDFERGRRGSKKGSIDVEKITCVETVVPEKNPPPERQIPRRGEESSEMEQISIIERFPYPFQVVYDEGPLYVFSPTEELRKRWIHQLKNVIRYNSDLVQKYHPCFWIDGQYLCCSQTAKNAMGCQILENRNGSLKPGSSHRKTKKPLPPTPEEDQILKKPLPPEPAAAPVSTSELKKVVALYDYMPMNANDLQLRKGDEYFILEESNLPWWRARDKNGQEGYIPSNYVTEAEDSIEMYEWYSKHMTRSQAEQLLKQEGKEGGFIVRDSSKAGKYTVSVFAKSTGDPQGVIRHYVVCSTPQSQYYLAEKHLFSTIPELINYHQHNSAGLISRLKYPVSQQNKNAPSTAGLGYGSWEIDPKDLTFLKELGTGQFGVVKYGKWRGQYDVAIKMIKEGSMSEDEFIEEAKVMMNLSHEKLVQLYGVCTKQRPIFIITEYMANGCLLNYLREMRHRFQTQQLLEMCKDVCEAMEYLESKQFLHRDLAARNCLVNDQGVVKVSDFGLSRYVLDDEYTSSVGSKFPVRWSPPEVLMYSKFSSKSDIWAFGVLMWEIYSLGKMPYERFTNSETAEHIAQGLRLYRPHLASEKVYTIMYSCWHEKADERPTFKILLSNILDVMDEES
T20 sequence (Q04759 whole entry): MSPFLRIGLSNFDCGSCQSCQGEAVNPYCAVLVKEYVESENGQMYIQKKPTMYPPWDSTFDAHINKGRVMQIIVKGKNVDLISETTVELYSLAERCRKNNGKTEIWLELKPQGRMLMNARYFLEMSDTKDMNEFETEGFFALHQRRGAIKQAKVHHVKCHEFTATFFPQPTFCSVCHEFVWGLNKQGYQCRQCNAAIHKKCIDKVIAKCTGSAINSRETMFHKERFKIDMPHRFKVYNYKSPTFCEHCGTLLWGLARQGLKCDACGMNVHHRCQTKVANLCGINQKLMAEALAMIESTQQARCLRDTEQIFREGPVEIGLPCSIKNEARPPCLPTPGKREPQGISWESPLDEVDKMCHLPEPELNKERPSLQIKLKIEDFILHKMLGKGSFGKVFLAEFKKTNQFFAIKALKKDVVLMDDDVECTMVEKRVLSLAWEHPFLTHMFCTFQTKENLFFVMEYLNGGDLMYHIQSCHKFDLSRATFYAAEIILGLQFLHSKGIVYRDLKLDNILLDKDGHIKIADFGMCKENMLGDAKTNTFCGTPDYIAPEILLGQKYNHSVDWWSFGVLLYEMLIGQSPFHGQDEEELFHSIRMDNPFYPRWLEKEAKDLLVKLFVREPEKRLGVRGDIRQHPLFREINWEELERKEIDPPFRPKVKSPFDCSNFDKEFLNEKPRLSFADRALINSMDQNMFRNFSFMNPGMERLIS
T13 sequence (Q9UHD2 whole entry): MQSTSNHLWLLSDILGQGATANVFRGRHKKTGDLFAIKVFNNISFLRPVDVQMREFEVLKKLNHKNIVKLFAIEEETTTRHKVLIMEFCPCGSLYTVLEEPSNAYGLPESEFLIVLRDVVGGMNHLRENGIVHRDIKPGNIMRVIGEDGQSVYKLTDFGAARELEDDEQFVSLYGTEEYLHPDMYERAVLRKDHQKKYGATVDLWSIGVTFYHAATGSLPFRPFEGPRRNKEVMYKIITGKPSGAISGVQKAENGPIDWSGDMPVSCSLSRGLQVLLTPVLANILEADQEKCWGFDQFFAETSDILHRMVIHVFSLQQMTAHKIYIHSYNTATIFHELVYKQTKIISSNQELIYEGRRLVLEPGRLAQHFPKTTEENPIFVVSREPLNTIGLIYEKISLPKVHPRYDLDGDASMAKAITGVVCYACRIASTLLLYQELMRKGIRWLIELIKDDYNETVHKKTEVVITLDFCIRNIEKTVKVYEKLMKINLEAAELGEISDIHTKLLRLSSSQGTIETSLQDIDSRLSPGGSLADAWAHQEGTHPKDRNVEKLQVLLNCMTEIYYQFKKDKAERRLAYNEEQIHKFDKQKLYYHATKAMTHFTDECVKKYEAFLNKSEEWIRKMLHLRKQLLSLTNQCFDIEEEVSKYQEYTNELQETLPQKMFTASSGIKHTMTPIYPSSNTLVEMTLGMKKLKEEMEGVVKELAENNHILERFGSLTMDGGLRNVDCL
T12 sequence (Q9Y6E0 whole entry): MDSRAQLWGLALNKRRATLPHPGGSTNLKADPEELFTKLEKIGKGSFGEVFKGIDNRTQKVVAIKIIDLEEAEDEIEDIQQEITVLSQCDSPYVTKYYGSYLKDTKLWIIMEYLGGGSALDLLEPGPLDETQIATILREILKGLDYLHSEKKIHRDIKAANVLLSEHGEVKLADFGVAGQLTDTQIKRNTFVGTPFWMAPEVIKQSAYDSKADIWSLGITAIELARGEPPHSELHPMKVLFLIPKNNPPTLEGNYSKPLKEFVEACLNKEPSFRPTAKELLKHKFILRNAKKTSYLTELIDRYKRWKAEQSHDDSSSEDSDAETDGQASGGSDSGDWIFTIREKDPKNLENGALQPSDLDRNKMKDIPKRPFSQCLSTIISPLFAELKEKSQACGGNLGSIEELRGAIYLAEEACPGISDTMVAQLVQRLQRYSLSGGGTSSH
T4 sequence (Q9NWZ3 whole entry): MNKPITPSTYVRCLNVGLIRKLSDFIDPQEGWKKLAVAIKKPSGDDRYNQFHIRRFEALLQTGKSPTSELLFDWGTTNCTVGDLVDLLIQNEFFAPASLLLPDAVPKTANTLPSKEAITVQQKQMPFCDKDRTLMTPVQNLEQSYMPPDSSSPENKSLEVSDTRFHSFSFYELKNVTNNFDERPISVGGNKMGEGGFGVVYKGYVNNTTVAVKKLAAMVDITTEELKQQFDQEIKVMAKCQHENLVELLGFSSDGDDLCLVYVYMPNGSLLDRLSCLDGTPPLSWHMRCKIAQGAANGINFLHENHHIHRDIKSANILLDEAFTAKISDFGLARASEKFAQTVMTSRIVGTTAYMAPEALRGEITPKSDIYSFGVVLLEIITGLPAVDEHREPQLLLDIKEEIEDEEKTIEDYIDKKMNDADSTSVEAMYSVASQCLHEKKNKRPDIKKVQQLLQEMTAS
T3 sequence (P0C1S8 whole entry): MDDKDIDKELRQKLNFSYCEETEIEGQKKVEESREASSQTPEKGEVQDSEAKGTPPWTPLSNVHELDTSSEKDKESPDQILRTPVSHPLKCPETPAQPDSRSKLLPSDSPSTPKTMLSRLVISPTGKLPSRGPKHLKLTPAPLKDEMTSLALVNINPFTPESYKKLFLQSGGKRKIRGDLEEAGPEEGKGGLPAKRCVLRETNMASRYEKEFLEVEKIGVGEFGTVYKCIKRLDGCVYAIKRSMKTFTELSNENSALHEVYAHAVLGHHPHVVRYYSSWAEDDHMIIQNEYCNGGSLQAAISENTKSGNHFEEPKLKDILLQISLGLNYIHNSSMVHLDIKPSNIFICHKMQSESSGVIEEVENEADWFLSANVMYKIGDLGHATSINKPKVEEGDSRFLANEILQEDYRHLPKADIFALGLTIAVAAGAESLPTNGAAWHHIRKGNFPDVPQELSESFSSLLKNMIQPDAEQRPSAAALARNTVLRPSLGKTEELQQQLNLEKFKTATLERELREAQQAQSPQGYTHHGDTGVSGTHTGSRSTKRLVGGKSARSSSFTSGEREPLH
T23 sequence (P07948 whole entry): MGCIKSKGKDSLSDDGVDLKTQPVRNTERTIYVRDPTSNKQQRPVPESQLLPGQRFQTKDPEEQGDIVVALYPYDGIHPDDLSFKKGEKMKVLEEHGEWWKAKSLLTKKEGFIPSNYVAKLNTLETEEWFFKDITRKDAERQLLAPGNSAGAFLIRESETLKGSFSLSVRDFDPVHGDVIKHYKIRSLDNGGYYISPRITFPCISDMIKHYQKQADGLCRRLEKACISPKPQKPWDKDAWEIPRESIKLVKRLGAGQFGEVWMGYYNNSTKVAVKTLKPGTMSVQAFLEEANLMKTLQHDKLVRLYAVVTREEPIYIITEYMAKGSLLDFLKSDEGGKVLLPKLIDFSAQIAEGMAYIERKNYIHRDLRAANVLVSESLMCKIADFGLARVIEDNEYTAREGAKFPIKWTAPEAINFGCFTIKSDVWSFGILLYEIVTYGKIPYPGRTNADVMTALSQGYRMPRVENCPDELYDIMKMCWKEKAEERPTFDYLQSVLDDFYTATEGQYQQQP
T31 sequence (O94768 whole entry): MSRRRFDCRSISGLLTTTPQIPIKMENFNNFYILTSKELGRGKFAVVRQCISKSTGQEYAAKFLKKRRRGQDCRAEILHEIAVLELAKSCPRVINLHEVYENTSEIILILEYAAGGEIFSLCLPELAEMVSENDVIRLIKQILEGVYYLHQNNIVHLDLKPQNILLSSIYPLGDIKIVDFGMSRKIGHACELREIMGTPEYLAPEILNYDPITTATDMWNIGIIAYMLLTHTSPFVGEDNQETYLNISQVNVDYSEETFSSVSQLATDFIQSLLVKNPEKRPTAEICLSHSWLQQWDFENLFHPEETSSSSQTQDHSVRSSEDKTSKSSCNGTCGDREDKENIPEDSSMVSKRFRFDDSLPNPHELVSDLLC
T29 sequence (O15530 whole entry): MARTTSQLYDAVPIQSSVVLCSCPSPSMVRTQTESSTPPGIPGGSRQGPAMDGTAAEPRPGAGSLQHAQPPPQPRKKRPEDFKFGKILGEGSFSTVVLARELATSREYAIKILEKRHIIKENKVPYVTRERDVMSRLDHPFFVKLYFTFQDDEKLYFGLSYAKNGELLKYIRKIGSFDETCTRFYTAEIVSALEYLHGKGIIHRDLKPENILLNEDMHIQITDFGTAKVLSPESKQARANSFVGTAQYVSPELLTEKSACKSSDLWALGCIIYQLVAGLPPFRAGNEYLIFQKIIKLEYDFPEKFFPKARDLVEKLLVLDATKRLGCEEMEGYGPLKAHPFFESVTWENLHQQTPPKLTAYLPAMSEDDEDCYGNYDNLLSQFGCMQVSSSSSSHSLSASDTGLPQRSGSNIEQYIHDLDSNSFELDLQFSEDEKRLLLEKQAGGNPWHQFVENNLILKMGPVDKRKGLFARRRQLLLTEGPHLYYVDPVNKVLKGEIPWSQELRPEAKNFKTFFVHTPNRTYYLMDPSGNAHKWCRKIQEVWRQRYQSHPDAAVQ

Structure (SMILES): CCOP(=O)(CN1CCC(COc2cc3nccc(Oc4ccc(NC(=O)C5(C(=O)Nc6ccc(F)cc6)CC5)cc4F)c3cc2OC)CC1)OCC [Example 10, N1-[4-[[7-[[1-(diethoxyphosphorylmethyl)-4-piperidinyl]methoxyl]-6-methoxyl-4-quinolyl]oxyl]-3-fluorophenyl]-N1′-(4-fluorophenyl)cyclopropane-1,1-dicarboxamide]
- % Ctrl@1000 nM (PKNB (M. tuberculosis)): 96 % Ctrl
- % Ctrl@1000 nM (MET(Y1235D)): 4.4 % Ctrl
- % Ctrl@1000 nM (WEE2): 100 % Ctrl
- % Ctrl@1000 nM (IRAK4): 100 % Ctrl
- % Ctrl@1000 nM (EPHA1): 4.6 % Ctrl
- % Ctrl@1000 nM (KIT(V559D)): 0.15 % Ctrl
- % Ctrl@1000 nM (EPHB4): 12 % Ctrl
- % Ctrl@1000 nM (ICK): 95 % Ctrl
- % Ctrl@1000 nM (DDR2): 7.8 % Ctrl
- % Ctrl@1000 nM (BTK): 51 % Ctrl
- % Ctrl@1000 nM (MEK1): 24 % Ctrl
- % Ctrl@1000 nM (MST3): 100 % Ctrl
- % Ctrl@1000 nM (TBK1): 79 % Ctrl
- % Ctrl@1000 nM (PLK4): 7.4 % Ctrl
- % Ctrl@1000 nM (INSR): 54 % Ctrl
- % Ctrl@1000 nM (EIF2AK1): 100 % Ctrl
- % Ctrl@1000 nM [1]: 70 % Ctrl
- % Ctrl@1000 nM (QSK): 100 % Ctrl
- % Ctrl@1000 nM (ERN1): 81 % Ctrl
- % Ctrl@1000 nM (PRKCQ): 100 % Ctrl
- % Ctrl@1000 nM (CDK4-cyclinD3): 100 % Ctrl
- % Ctrl@1000 nM (BMX): 92 % Ctrl
- % Ctrl@1000 nM (LYN): 18 % Ctrl
- % Ctrl@1000 nM (FRK): 8.8 % Ctrl
- % Ctrl@1000 nM (MAP3K15): 100 % Ctrl
- % Ctrl@1000 nM (CDK9): 100 % Ctrl
- % Ctrl@1000 nM (KIT(D816V)): 18 % Ctrl
- % Ctrl@1000 nM (MARK3): 100 % Ctrl
- % Ctrl@1000 nM (PDPK1): 100 % Ctrl
- % Ctrl@1000 nM (EPHB6): 0.9 % Ctrl
- % Ctrl@1000 nM (DRAK2): 100 % Ctrl
